# According to ChEMBL document CHEMBL5233246, “CT1-3, a novel magnolol-sulforaphane hybrid suppresses tumorigenesis through inducing mitochondria-mediated apoptosis and inhibiting epithelial mesenchymal transition” (Eur J Med Chem, 2020):
# The source made the active and inactive calls. The rule behind the calls is not given here.
# What was measured:
# AGS = assay: Antiproliferative activity against human AGS cells assessed as reduction in cell viability incubated for 24 hrs by CCK-8 assay; type: functional, cell-based
# NCI-H460 [1] = assay: Inhibition of colony formation in human NCI-H460 cells incubated for 48 hrs by Giemsa staining based microscopy; type: functional, cell-based
# A549 [2] = assay: Induction of apoptosis in human A549 cells assessed as increase in ROS level at 10 uM incubated for 8 hrs by H2DCFDA staining based fluorescence microscopic assay; type: functional, cell-based
# MCF7 = assay: Antiproliferative activity against human MCF7 cells assessed as reduction in cell viability incubated for 24 hrs by CCK-8 assay; type: functional, cell-based; settings: MCF7, 24 h
# OVCAR-3 [3] = assay: Antiproliferative activity against human OVCAR-3 cells assessed as reduction in cell viability incubated for 24 hrs by CCK-8 assay; type: functional, cell-based; settings: OVCAR-3, 24 h
# NCI-H460 [4] = assay: Inhibition of cell migration in human NCI-H460 cells assessed as downregulation of Snail protein expression at 7.5 uM incubated for 24 hrs by western blot analysis; type: functional, cell-based
# U-251 = assay: Antiproliferative activity against human U-251 cells assessed as reduction in cell viability incubated for 24 hrs by CCK-8 assay; type: functional, cell-based; settings: U-251, 24 h
# LoVo [5] = assay: Induction of apoptosis in human LoVo cells assessed as decrease in XIAP protein expression level at 7.5 uM incubated for 24 hrs by western blot assay; type: functional, cell-based
# [6] = Toxicity in BALB/c mouse xenografted with human MDA-MB-231 cells assessed as liver pathological change at 20 mg/kg,ip measured after 28 days; type: organism-based; settings: in vivo, 672 h, time 28 day
# NCI-H460 [7] = assay: Induction of apoptosis in human NCI-H460 cells assessed as increase in Bax protein expression level at 7.5 uM incubated for 24 hrs by western blot assay; type: functional, cell-based
# [8] = Antiproliferative activity against human NCI-H1688 cells assessed as reduction in cell viability incubated for 24 hrs by CCK-8 assay; type: functional, cell-based; settings: NCI-H1688, 24 h
# LoVo [9] = assay: Inhibition of cell migration in human LoVo cells at 7.5 uM incubated for 24 hrs by crystal violet staining based transwell assay; type: functional
# LoVo [10] = assay: Inhibition of colony formation in human LoVo cells incubated for 48 hrs by Giemsa staining based microscopy; type: functional, cell-based
# A549 [11] = assay: Antitumor activity against human A549 cells xenografted in BALB/c mouse assessed as reduction in tumor growth at 20 mg/kg,ip measured after 28 days; type: functional, organism-based; settings: time 28.0 day
# LoVo [12] = assay: Inhibition of cell invasion in human LoVo cells at 7.5 uM incubated for 24 hrs by matrigel based transwell assay; type: functional
# NCI-H460 [13] = assay: Inhibition of cell migration in human NCI-H460 cells assessed as upregulation of E-cadherin protein expression at 7.5 uM incubated for 24 hrs by western blot analysis; type: functional, cell-based
# LoVo [14] = assay: Induction of apoptosis in human LoVo cells assessed as increase in ROS level at 10 uM incubated for 8 hrs by H2DCFDA staining based fluorescence microscopic assay; type: functional, cell-based
# NCI-H1650 = assay: Antiproliferative activity against human NCI-H1650 cells assessed as reduction in cell viability incubated for 24 hrs by CCK-8 assay; type: functional, cell-based; settings: NCI-H1650, 24 h
# NCI-H460 [15] = assay: Induction of apoptosis in human NCI-H460 cells assessed as reduction of mitochondrial membrane potential at 10 uM incubated for 8 hrs by JC-1 staining based fluorescence microscopic assay; type: functional, cell-based
# LoVo [16] = assay: Induction of apoptosis in human LoVo cells assessed as early apoptotic cells at 10 uM incubated for 24 hrs by annexin V-FITC/propidium iodide staining based flow cytometry analysis (reference value: 1.3%); type: functional
# NCI-H460 [17] = assay: Induction of apoptosis in human NCI-H460 cells assessed as necrotic cells at 10 uM incubated for 24 hrs by annexin V-FITC/propidium iodide staining based flow cytometry analysis (reference value: 0.9%); type: functional
# SGC-7901 = assay: Antiproliferative activity against human SGC-7901 cells assessed as reduction in cell viability incubated for 24 hrs by CCK-8 assay; type: functional, cell-based; settings: SGC-7901, 24 h
# NCI-H460 [18] = assay: Induction of apoptosis in human NCI-H460 cells assessed as decrease in Bcl-2 protein expression level at 7.5 uM incubated for 24 hrs by western blot assay; type: functional, cell-based
# LoVo [19] = assay: Induction of apoptosis in human LoVo cells assessed as late apoptotic cells at 10 uM incubated for 24 hrs by annexin V-FITC/propidium iodide staining based flow cytometry analysis (reference value: 0.4%); type: functional
# A549 [20] = assay: Inhibition of cell invasion in human A549 cells at 7.5 uM incubated for 24 hrs by matrigel based transwell assay; type: functional
# OVCAR-3 [21] = assay: Inhibition of colony formation in human OVCAR-3 cells incubated for 48 hrs by Giemsa staining based microscopy; type: functional, cell-based
# A549 [22] = assay: Induction of apoptosis in human A549 cells assessed as reduction of mitochondrial membrane potential at 10 uM incubated for 8 hrs by JC-1 staining based fluorescence microscopic assay; type: functional, cell-based
# NCI-H460 [23] = assay: Antiproliferative activity against human NCI-H460 cells assessed as reduction in cell viability incubated for 24 hrs by CCK-8 assay; type: functional, cell-based; settings: NCI-H460, 24 h
# A549 [24] = assay: Induction of apoptosis in human A549 cells assessed as late apoptotic cells at 10 uM incubated for 24 hrs by annexin V-FITC/propidium iodide staining based flow cytometry analysis (reference value: 0.8%); type: functional
# SW480 = assay: Antiproliferative activity against human SW480 cells assessed as reduction in cell viability incubated for 24 hrs by CCK-8 assay; type: functional, cell-based; settings: SW480, 24 h
# NCI-H460 [25] = assay: Induction of apoptosis in human NCI-H460 cells assessed as increase in JNK phosphorylation level at 7.5 uM incubated for 24 hrs by western blot assay; type: functional, cell-based
# LoVo [26] = assay: Inhibition of cell migration in human LoVo cells assessed as upregulation of E-cadherin protein expression at 7.5 uM incubated for 24 hrs by western blot analysis; type: functional, cell-based
# MDA-MB-231 = assay: Antitumor activity against human MDA-MB-231 cells xenografted in BALB/c mouse assessed as tumor necrosis at 20 mg/kg,ip measured after 28 days; type: functional, organism-based; settings: time 28.0 day
# LoVo [27] = assay: Induction of apoptosis in human LoVo cells assessed as increase in Bax protein expression level at 7.5 uM incubated for 24 hrs by western blot assay; type: functional, cell-based
smiles,measurement,setting,value
C=CCc1ccc(O)c(-c2cc(CC=C)ccc2OCC[S+]([O-])CCCCN=C=S)c1 (centres undefined),IC50,AGS,8.02 µM
same,inhibition,NCI-H460 [1],Active
same,Activity,A549 [2],Active
same,IC50,MCF7,12.7 µM
same,IC50,OVCAR-3 [3],5.34 µM
same,inhibition,NCI-H460 [4],Active
same,IC50,U-251,7.75 µM
same,Activity,LoVo [5],Active
same,Activity,[6],Non-Toxic
same,Activity,NCI-H460 [7],Active
same,IC50,[8],12.8 µM
same,inhibition,LoVo [9],Active
same,inhibition,LoVo [10],Active
same,Activity,A549 [11],Active
same,inhibition,LoVo [12],Active
same,inhibition,NCI-H460 [13],Active
same,Activity,LoVo [14],Active
same,IC50,NCI-H1650,6.92 µM
same,Activity,NCI-H460 [15],Active
same,Activity,LoVo [16],16.7%
same,Activity,NCI-H460 [17],3.6%
same,IC50,SGC-7901,11.5 µM
same,Activity,NCI-H460 [18],Active
same,Activity,LoVo [19],23.3%
same,inhibition,A549 [20],Active
same,inhibition,OVCAR-3 [21],Active
same,Activity,A549 [22],Active
same,IC50,NCI-H460 [23],6.15 µM
same,Activity,A549 [24],25.7%
same,IC50,SW480,6.07 µM
same,Activity,NCI-H460 [25],Active
same,inhibition,LoVo [26],Active
same,Activity,MDA-MB-231,Active
same,Activity,LoVo [27],Active
